Laboratory results from patent publication US10800741B2 (ANCUREALL PHARMACEUTICAL (SHANGHAI) CO., LTD., priority 2017, dated 2020).

Legend:
H1581 (FGFR1 amp) = test: In vitro growth inhibition of H1581 tumor cells (MTT/CCK8); format: cell-based, Human; settings: Homo sapiens, NCI-H1581; in vitro growth inhibition (or induction of apoptosis), cells cultured 3 to 5 days, MTT (CCK8); read-out: IC50 H1581 (FGFR1 amp)
[1] = test system: human intestinal cancer cell line HCT116 (KRAS G13D mutation); test: Growth inhibition in combination with MEK1/2 inhibitor Trametinib, HCT116 (KRAS G13D mutation); format: cell-based; settings: 5 days
Protocol: (§1) Test Example 5 Synergistic Inhibition Effect of the Present Compounds in Combination with MEK1/2 Inhibitor on the Growth of RAS Mutant Tumor Cells In Vitro
(§2) The cell culture, drug treatment and MTT assay of human intestinal cancer cell line HCT116 (KRAS G13D mutation) and human non-small cell lung cancer cell line NCI-H1299 (NRAS Q61K mutation) were performed according to the method of test example 1. Cells were treated with the MEK1/2 inhibitor Trametinib at 25 nM, 2.5 nM and 0.25 nM alone or in combination with compound 66 or 125 of the present invention (5 days).

[2] = test system: human non-small cell lung cancer cell line NCI-H1299 (NRAS Q61K mutation); test: Growth inhibition in combination with MEK1/2 inhibitor Trametinib, NCI-H1299 (NRAS Q61K mutation); format: cell-based; settings: 5 days
Protocol: as §1, §2

KATO III (FGFR2 amp) = test: In vitro growth inhibition of KATO III tumor cells (MTT/CCK8); format: cell-based, Human; settings: Homo sapiens, KATO III; in vitro growth inhibition (or induction of apoptosis), cells cultured 3 to 5 days, MTT (CCK8); read-out: IC50 KATO III (FGFR2 amp)
MOLM-13 (FLT3-ITD) = test: In vitro growth inhibition of MOLM-13 tumor cells (MTT/CCK8); format: cell-based, Human; settings: Homo sapiens, MOLM-13; in vitro growth inhibition (or induction of apoptosis), cells cultured 3 to 5 days, MTT (CCK8); read-out: IC50 MOLM-13 (FLT3-ITD)
Hep3B2 (FGFR3/4+++) = test: In vitro growth inhibition of Hep3B2 tumor cells (MTT/CCK8); format: cell-based, Human; settings: Homo sapiens, Hep3B; in vitro growth inhibition (or induction of apoptosis), cells cultured 3 to 5 days, MTT (CCK8); read-out: IC50 Hep3B2 (FGFR3/4+++)
Kasumi-1 (KIT N822K) = test: In vitro growth inhibition of Kasumi-1 tumor cells (MTT/CCK8); format: cell-based, Human; settings: Homo sapiens, Kasumi 1; in vitro growth inhibition (or induction of apoptosis), cells cultured 3 to 5 days, MTT (CCK8); read-out: IC50 Kasumi-1 (KIT N822K)
Karpas 299 (NPM-ALK) = test: In vitro growth inhibition of Karpas 299 tumor cells (MTT/CCK8); format: cell-based, Human; settings: Homo sapiens, KARPAS-299; in vitro growth inhibition (or induction of apoptosis), cells cultured 3 to 5 days, MTT (CCK8); read-out: IC50 Karpas 299 (NPM-ALK)
KCL-22 (BCR-ABL) = test: In vitro growth inhibition of KCL-22 tumor cells (MTT/CCK8); format: cell-based, Human; settings: Homo sapiens, KCL-22; in vitro growth inhibition (or induction of apoptosis), cells cultured 3 to 5 days, MTT (CCK8); read-out: IC50 KCL-22 (BCR-ABL)
RS4:11 = test: In vitro growth inhibition of FLT3 wild type overexpressing cells RS4:11; format: cell-based; settings: Homo sapiens, cells over expressing FLT3 wild-type
Protocol: Adherent cells were digested with 0.25% trypsin-EDTA (Gibco). Suspension culture cells were collected by centrifugation (1700 rpm, 3 minutes). The supernatant was discarded and the cells were counted. According to each cell growth cycle, different concentrations of cells were prepared (5˜10×10^4 cells per ml), and inoculated to 96-well plates (Corning), with 100 μl per well, and incubated overnight at 37° C., 5% CO2. The next day, the test compound was added to the cultured cells (2 wells in parallel). The final concentration of the solvent was less than 1/1,000. The cells were further cultured for 3 to 5 days and assayed by MTT.
The MTT test reagent was a Dojindo CCK8 kit and the Microplate Reader was a THERMO […] FC instrument.
The adherent cells were taken out from the cell culture medium, and immediately added to a freshly prepared complete medium containing 10% CCK8 (5% FBS), 100 ul per hole. The suspended cells were directly added to a CCK8 reagent until reaching a final concentration of 10% and cultured for 1 to 4 hours. When a dark yellow color could be observed in the solvent control wells, the absorbance value at OD450 nm was measured and the cell growth rate was calculated according to the following formula: Cell Growth Rate (%)=100×(T−T0)/(C−T0)
T=optical density of drug-treated cell wells−optical density of blank control wells; T0=optical density of cell wells before drug treatment−optical density of blank control wells; C=optical density of solvent control wells−optical density of blank control wells. […] The experiments were repeated 1 to 3 times and a statistical analysis of data was conducted.
The present compounds which has a high growth inhibition activity on tumor cells positive expressing FLT3-ITD were selected for the determination of IC50 concentration on FLT3 wild tyoverexpressing cells RS4:11 and FLT3 wild-type normal expressing cells Jurkat. The specific test method is the same as that of test example 1.

H1703 (PDGFRa amp) = test: In vitro growth inhibition of H1703 tumor cells (MTT/CCK8); format: cell-based, Human; settings: Homo sapiens, NCI-H1703; in vitro growth inhibition (or induction of apoptosis), cells cultured 3 to 5 days, MTT (CCK8); read-out: IC50 H1703 (PDGFRa amp)
[3] = compound 7.8 nM + Trametinib 0.25 nM
[4] = compound 7.8 nM + Trametinib 2.5 nM
[5] = compound 7.8 nM + Trametinib 25 nM
[6] = compound 15.6 nM + Trametinib 0.25 nM
[7] = compound 15.6 nM + Trametinib 2.5 nM
[8] = compound 15.6 nM + Trametinib 25 nM

Structure (SMILES)	IC50 (H1581 (FGFR1 amp)) [nM]	IC50 (KATO III (FGFR2 amp)) [nM]	IC50 (MOLM-13 (FLT3-ITD)) [nM]	IC50 (Hep3B2 (FGFR3/4+++)) [nM]	IC50 (Kasumi-1 (KIT N822K)) [nM]	IC50 (Karpas 299 (NPM-ALK)) [nM]	IC50 (KCL-22 (BCR-ABL)) [nM]	IC50 (H1703 (PDGFRa amp)) [nM]	other results
COCCOc1cc2nccc(Oc3ccc(NC(=O)Nc4cc(C(C)(C)C)nn4C4CC4)c(Cl)c3)c2cc1NC(C)=O [Compound 125]	1.06	0.23	1.2	–	–	–	–	–	inhibition at 0.0078 µM ([1]; Homo sapiens, HCT-116, 120 h, compound 7.8 nM alone (solvent instead of Trametinib), read-out: cell growth inhibition (percentage)): 14.5%; inhibition at 0.0156 µM ([1]; Homo sapiens, HCT-116, 120 h, compound 15.6 nM alone (solvent instead of Trametinib), read-out: cell growth inhibition (percentage)): 19.9%; cell growth inhibition (percentage) [1, 3]: 62.54%; cell growth inhibition (percentage) [1, 4]: 76.01%; cell growth inhibition (percentage) [1, 5]: 82.04%; cell growth inhibition (percentage) [1, 6]: 71.98%; cell growth inhibition (percentage) [1, 7]: 79.72%; cell growth inhibition (percentage) [1, 8]: 82.82%; inhibition at 0.0078 µM ([2]; Homo sapiens, NCI-H1299, 120 h, compound 7.8 nM alone (solvent instead of Trametinib), read-out: cell growth inhibition (percentage)): 1.63%; inhibition at 0.0156 µM ([2]; Homo sapiens, NCI-H1299, 120 h, compound 15.6 nM alone (solvent instead of Trametinib), read-out: cell growth inhibition (percentage)): 6.5%; cell growth inhibition (percentage) [2, 3]: 9.27%; cell growth inhibition (percentage) [2, 4]: 24.38%; cell growth inhibition (percentage) [2, 5]: 46.25%; cell growth inhibition (percentage) [2, 6]: 19.92%; cell growth inhibition (percentage) [2, 7]: 34.72%; cell growth inhibition (percentage) [2, 8]: 58.26%
COc1cc2nccc(Oc3ccc(NC(=O)Nc4cc(C(C)(C)C)n[nH]4)cc3F)c2cc1NC(C)=O [Compound 102, N-(4-{4-[3-(5-tert-butyl-2H-pyrazol-3-yl)-ureido]-2-fluoro-phenoxy}-7-methoxy-quinolin-6-yl)-acetamide]	8.39	1.32	< 0.05	75.8	97.5	> 1000	10.2	71.2	IC50 (RS4:11): 500 nM
CC(=O)Nc1cccc(-n2c(=O)n(C3CC3)c(=O)c3c(Nc4ccc(I)cc4F)n(C)c(=O)c(C)c32)c1 [Trametinib, reference compound]	–	–	–	–	–	–	–	–	inhibition at 0.00025 µM ([1]; Homo sapiens, HCT-116, 120 h, Trametinib 0.25 nM alone, read-out: cell growth inhibition (percentage)): 12.1%; inhibition at 0.0025 µM ([1]; Homo sapiens, HCT-116, 120 h, Trametinib 2.5 nM alone, read-out: cell growth inhibition (percentage)): 27.7%; inhibition at 0.025 µM ([1]; Homo sapiens, HCT-116, 120 h, Trametinib 25 nM alone, read-out: cell growth inhibition (percentage)): 75.1%; inhibition at 0.00025 µM ([2]; Homo sapiens, NCI-H1299, 120 h, Trametinib 0.25 nM alone, read-out: cell growth inhibition (percentage)): 2.2%; inhibition at 0.0025 µM ([2]; Homo sapiens, NCI-H1299, 120 h, Trametinib 2.5 nM alone, read-out: cell growth inhibition (percentage)): 6.31%; inhibition at 0.025 µM ([2]; Homo sapiens, NCI-H1299, 120 h, Trametinib 25 nM alone, read-out: cell growth inhibition (percentage)): 15.5%
CNC(=O)c1cc2c(Oc3ccc(NC(=O)Nc4cc(C(C)(C)C)n[nH]4)cc3Cl)ccnc2cc1OC [Compound 54, 4-{4-[3-(5-tert-butyl-2H-pyrazol-3-yl)-ureido]-2-chloro-phenoxy}-7-methoxyquinolin-6-carboxylic acid methylamide]	53.4	5.5	0.27	153	26.1	114	23.9	71.5	IC50 (RS4:11): 531 nM
CNC(=O)c1cc2c(Oc3ccc(NC(=O)Nc4cc(C(C)(C)C)n[nH]4)c(Cl)c3)ccnc2cc1OC [Compound 45, 4-{4-[3-(5-tert-butyl-2H-pyrazol-3-yl)-ureido]-3-chloro-phenoxy}-7-methoxyquinolin-6-carboxylic acid methylamide]	16.5	1.46	6.32	39.6	34.2	413	21.8	25.7	–
CNC(=O)c1cc2c(Oc3ccc(NC(=O)N4CCCC4)c(Cl)c3Cl)ccnc2cc1OCCOC [Compound 76, 4-{2,3-dichloro-4-[(pyrrolidin-1-carbonyl)-amino]-phenoxy}-7-(2-methoxy-ethoxy)-quinolin-6-carboxylic acid methylamide]	> 1000	363	> 1000	> 1000	≥ 1000	> 1000	> 1000	370	–
CNC(=O)c1cc2c(Oc3ccc(NC(=O)Nc4cc(C(C)(C)C)nn4C)c(C)c3)ccnc2cc1OC [Compound 50, 4-{4-[3-(5-tert-butyl-2-methyl-2H-pyrazol-3-yl)-ureido]-3-methyl-phenoxy}-7-methoxy quinolin-6-carboxylate acid methylamide]	59.5	0.31	16.2	96.6	65.6	795	90	14.5	–
COc1cc2nccc(Oc3ccc(NC(=O)Nc4cc(C(C)(C)C)on4)c(Br)c3)c2cc1C(N)=O [Compound 3, 4-{3-bromo-4-[3-(5-tert-butyl-isoxazol-3-yl)-ureido]-phenoxy}-7-methoxyquinolin-6-carboxamide]	6.87	1.46	35.4	27.4	27.8	725	14	16.6	–
CC(C)(C)c1cc(NC(=O)Nc2ccc(Oc3ccnc4cc(OCCN5CCCCC5)c(C(N)=O)cc34)cc2Cl)[nH]n1 [Compound 84, 4-{4-[3-(5-tert-butyl-2H-pyrazol-3-yl)-ureido]-3-chloro-phenoxy}-7-(2-piperidin-1-yl-ethoxy)-quinolin-pyridine-6-carboxamide]	114	6.09	35.2	148	240	> 1000	287	127	–
CC(C)(C)c1cc(NC(=O)Nc2ccc(Oc3ccnc4c(F)cccc34)cc2Cl)no1 [Compound 113, 1-(5-tert-butyl-isoxazol-3-yl)-3-[2-chloro-4-(8-fluoro-quinolin-4-yloxy)-phenyl]-urea]	> 1000	498	> 500	> 1000	> 1000	> 1000	> 1000	568	–
CC(C)(C)c1cc(NC(=O)Nc2ccc(Oc3ccnc4cc(O)c(C(N)=O)cc34)c(Cl)c2Cl)[nH]n1 [Compound 92, 4-{4-[3-(5-tert-butyl-2H-pyrazol-3-yl)-ureido]-2,3-dichloro-phenoxy}-7-hydroxy-quinolin-6-carboxamide]	146	17.5	28.9	232	182	749	67.5	453	–
